Earlier results, collected in patent US8748394B2, “Apo A-I mimetic peptides and methods of treatment” (Abbott Cardiovascular Systems Inc., priority 2007, dated 2014).
“Also recorded” adds a separate entry of the source. Square brackets hold non-standard residues; d marks the D form. Ends that are not written are not given here.

Test system: reverse cholesterol transport
Conditions: for function in reverse cholesterol transport in vitro: when a phospholipid complex is presented; for effectiveness in reverse cholesterol transport: without a lipid complex (non-complex form)

Substance	function in reverse cholesterol transport in vitro	effectiveness in reverse cholesterol transport	need of phospholipid complex for effective reverse cholesterol transport
DWFKAFYDKVAEKFKEAF [L-4F] (not fully specified) [18 amino acid Apo A-I mimetic peptide 4F, L enantiomer]	function more effectively	demonstrated an ability to function in a non-complex form	–
DWFKAFYDKVAEKFKEAF [D-4F] ([dD][dW][dF][dK][dA][dF][dY][dD][dK][dV][dA][dE][dK][dF][dK][dE][dA][dF]) [18 amino acid Apo A-I mimetic peptide 4F, D enantiomer]	function more effectively	effective in reverse cholesterol transport without a lipid complex; also recorded: demonstrated an ability to function in a non-complex form	–
Ac-PALEDLRQGLLPVLESFKVFLSALEEYTKKLNTQ-NH2 [33-mer peptide mimetic, 33-mer peptide, helices 9/10]	–	–	requires phospholipid complex formation
